From article PMC3030271 (ACS medicinal chemistry letters, 2010)

Columns and labels:
Type in all cases: cell-based
hA3AR = biological target: T1, hA3AR (Homo sapiens, UniProt P0DMS8); test: Cyclic AMP functional assay at the hA3AR expressed in CHO cells
T1 sequence (P0DMS8 1-318): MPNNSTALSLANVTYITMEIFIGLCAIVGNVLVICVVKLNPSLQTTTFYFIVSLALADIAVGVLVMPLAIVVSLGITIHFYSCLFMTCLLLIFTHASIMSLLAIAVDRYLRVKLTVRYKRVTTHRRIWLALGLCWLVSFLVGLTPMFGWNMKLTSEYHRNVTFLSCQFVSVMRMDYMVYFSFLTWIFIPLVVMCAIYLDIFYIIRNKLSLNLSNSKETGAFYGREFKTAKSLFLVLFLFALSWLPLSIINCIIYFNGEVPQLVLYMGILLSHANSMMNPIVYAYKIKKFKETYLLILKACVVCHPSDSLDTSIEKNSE

hA2AAR = hA2AAR (Homo sapiens, UniProt P29274); test: Cyclic AMP functional assay at the hA2AAR expressed in CHO cells; details: compared to the standard CGS21680
hA2BAR = biological target: T2, hA2BAR (Homo sapiens, UniProt P29275); test: Cyclic AMP accumulation at the hA2BAR expressed in CHO cells
T2 sequence (P29275 1-332): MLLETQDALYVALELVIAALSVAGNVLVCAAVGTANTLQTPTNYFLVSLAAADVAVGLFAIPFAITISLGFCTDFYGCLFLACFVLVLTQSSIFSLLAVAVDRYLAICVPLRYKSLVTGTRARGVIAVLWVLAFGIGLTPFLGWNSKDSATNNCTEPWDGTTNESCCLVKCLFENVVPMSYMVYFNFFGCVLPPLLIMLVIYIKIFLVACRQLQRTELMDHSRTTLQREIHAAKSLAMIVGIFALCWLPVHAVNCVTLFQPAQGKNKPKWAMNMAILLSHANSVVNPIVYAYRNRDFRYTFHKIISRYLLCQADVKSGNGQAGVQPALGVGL

Sequence of hA2AAR (P29274 whole entry): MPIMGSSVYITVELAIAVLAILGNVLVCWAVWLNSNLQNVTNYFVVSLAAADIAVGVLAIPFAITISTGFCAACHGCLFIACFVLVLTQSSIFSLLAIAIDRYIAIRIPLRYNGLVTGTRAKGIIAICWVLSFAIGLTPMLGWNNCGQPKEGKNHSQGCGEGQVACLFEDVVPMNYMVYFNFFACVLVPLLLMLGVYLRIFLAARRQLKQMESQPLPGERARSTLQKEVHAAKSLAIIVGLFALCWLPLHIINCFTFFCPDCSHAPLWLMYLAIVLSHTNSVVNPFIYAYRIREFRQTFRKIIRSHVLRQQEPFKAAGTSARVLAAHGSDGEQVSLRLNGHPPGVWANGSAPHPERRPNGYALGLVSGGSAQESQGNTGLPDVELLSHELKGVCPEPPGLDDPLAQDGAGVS

| Functional behaviour at the hA3AR (cyclic AMP assay) (hA3AR) | Functional behaviour at the hA2AAR (cyclic AMP assay) (hA2AAR) | Functional behaviour at the hA2BAR (cyclic AMP accumulation) (hA2BAR) | SMILES |
| --- | --- | --- | --- |
| potent and full antagonists |  |  | CCCC/C=C/c1nc(N)c2ncn([C@@H]3SC[C@@H](O)[C@H]3O)c2n1 [Compound 4b] |
| potent and full antagonists | full agonist | weak partial agonist | CCCCC#Cc1nc(N)c2ncn([C@@H]3SC[C@@H](O)[C@H]3O)c2n1 [Compound 4a] |
